From patent US6827926B2, “Metallotetrapyrrolic photosensitizing agents for use in photodynamic therapy” (Miravant Pharmaceuticals, Inc., priority 2001, dated 2004)
Read-outs that look alike come from different tables or passages of the source.

How the values were obtained:
[1] = test system: V79 (Chinese Hamster Lung Fibroblasts) cells; assay: In vitro cytotoxicity assay (light EC50, Alamar blue); format: cell-based
Method in brief: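 V79 cells in phenol-free 5% FBS/DMEM exposed 24 h to photosensitizer at final 0.01–5.0 μM, six replicates, then washed and light-treated, with a dark plate as control. Survival by Alamar blue after 24 h dark incubation, read at 570/600 nm.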

[2] = test system: normal skin of CD Hairless male rats; format: in vivo, rat
Method in brief: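 Liposomal egg yolk phospholipid photosensitizer given as single i.v. tail-vein bolus at 1, 1.5 and 2 μmol/kg; skin spots irradiated with 532 nm laser (150 mW/cm^2, 150J, 1 cm) at 1, 6, 24, 48, 96 hrs post injection. Value is time of last observed skin response spot.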

[3] = test system: normal uninjured rat carotid arteries (medial and adventitial cell populations); assay: In vivo rat carotid artery acellularity after PDT; parameters: species or system Sprague Dawley rats; settings: for Max % rat Artery Accelularity: Table 3, 50 J/cm^2, 3 days post treatment; for Max % Rat Artery Acceluarity: Table 5; for accelularity in rat artery at a four hour treatment point: 4 hrs post administration
Method in brief: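 Metallated photosensitizers light-activated in normal uninjured rat left common carotid via balloon catheter introduced through femoral arteriotomy under isoflurane; excitation 575 nm (Ga, Zn, Al, Sn) or 532 nm (Pt). Arteries harvested 3 days post-treatment, H&E-stained; medial and adventitial cell density assessed by light microscopy.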

[4] = test system: skin of Sprague Dawley rats; assay: Topical in-vivo skin response, Sprague Dawley rats (single topical dermal application)
[5] = Systemic toxicity in animals near the therapeutic dose; settings: 3× the therapeutic dose
[6] = Table 3 porphyrins, 24 h drug incubation, 532 nm, 1.25 J/cm^2, read-out: In Vitro EC50 Light
[7] = Table 3, time of last skin spot observed post injection, 1 μmol, 532 nm laser
[8] = Table 4 azaporphyrins, 575 nm (Pt azaporphyrins 532 nm), 1.25 J/cm^2, read-out: In Vitro EC(50)
[9] = Table 4, drug dose 1 μMol, 575 nm (Pt 532 nm)
[10] = Table 5 plant derived gallium porphyrins, light, read-out: In Vitro EC(50)

Normal skin Response (1 μmol) ([2]; rat, in vivo) [h]	Compound	EC50 [1, 6] [nM]	Max % rat Artery Accelularity ([3]; drug dose 1 μMol) [%]	other results
24	C=CC1=C(C)C2=Nc3c(C=C)c(C)c4[n]3[Ga-2]35([Cl])[n]6c(c(C)c(CCC(=O)NC)c6=CC6=[N+]3C(=C4)C(C)=C6CCC(=O)NC)=CC1=[N+]25 [M=Ga R1,R3=Me R2,R4=V R=CONHMe]	–	–	EC50 [1, 8]: 500 nM; Max % Rat Artery Accelularity [3, 9]: 50%
48	CCC1=C(C)C2=Cc3c(CC)c(C)c4[n]3[Ga-2]35([Cl])[n]6c(c(C)c(CO)c6=CC6=[N+]3C(=C4)C(C)=C6CCCO)=CC1=[N+]25 [M=Ga R1=CH2OH R2=Et R3=Et R4=CH2OH R5=H]	–	–	EC50 [1, 10]: 410 nM; Max % Rat Artery Acceluarity ([3]; drug dose 1 μMol): 70%
6	CCC1=C(C)C2=Cc3c(CC)c(C)c4[n]3[Ga-2]35([Cl])[n]6c(c(C)c(C(=O)NC)c6=CC6=[N+]3C(=C4)C(C)=C6CCC(=O)O)=CC1=[N+]25 [M=Ga R1=CO2H R2=Et R3=Et R4=CONHMe R5=H]	–	–	EC50 [1, 10]: 500 nM; Max % Rat Artery Acceluarity ([3]; drug dose 1 μMol): 50%
6	CCC1=C(C)C2=Cc3c(CC)c(C)c4[n]3[Ga-2]35([Cl])[n]6c(c(C)c(C(=O)OC)c6=CC6=[N+]3C(=C4)C(C)=C6CCC(=O)NC)=CC1=[N+]25 [M=Ga R1=CONHMe R2=Et R3=Et R4=CO2Me R5=H]	–	–	EC50 [1, 10]: 420 nM; Max % Rat Artery Acceluarity ([3]; drug dose 1 μMol): 65%
24	CCC1=C(C)C2=Cc3c(CC)c(C)c4[n]3[Ga-2]35([Cl])[n]6c(c(C)c(CCCC(=O)OCCF)c6=CC6=[N+]3C(=C4)C(C)=C6CCCC(=O)OCCF)=CC1=[N+]25 [M=Ga R1=Et R3=Me R4=Et R2=CH2CO2CH2CH2F]	400	75	–
24	CCOC(=O)CCCC1=C(C)C2=Cc3c(C)c(CC)c4[n]3[Ga-2]35([Cl])[n]6c(c(C)c(CCCC(=O)OCC)c6=CC1=[N+]23)=CC1=[N+]5C(=C4)C(C)=C1CC [M=Ga R1=Et R3=Me R4=Et R2=CH2CO2Et]	400	80	–
24	CCC1=C(C)C2=Cc3c(CC)c(C)c4[n]3[Ga-2]35([Cl])[n]6c(c(C)c(CCC(=O)O)c6=CC6=[N+]3C(=C4)C(C)=C6CCC(=O)O)=CC1=[N+]25 [M=Ga R1=Et R3=Me R4=Et R2=CO2H]	2000	15	accelularity in rat artery at a four hour treatment point [3]: 15%

More lines, now with the values behind:

Compound	Normal skin Response (1 μmol) ([2]; rat, in vivo) [h]	EC50 [1, 6] [nM]	Max % rat Artery Accelularity ([3]; drug dose 1 μMol) [%]	other results
CCCOC(=O)CCC1=C(C)c2cc3[n-]c(cc4nc(cc5[n-]c(cc1n2)c(CCC(=O)OCCC)c5C)C(CC)=C4C)c(CC)c3C.[Cl-].[Ga+3] [Example 3, Gallium Chloride Mesoporphyrin Dipropyl Ester]	–	60	85	Normal skin Response (1 μmol) [2, 7]: 6 h; delay of hair regrowth ([4]; topical 0.14 mg/cm^2): approximately 21 days; skin response ([4]; topical 0.14 mg/cm^2): no skin response; clearing formation of the skin first seen, time post light treatment ([4]; topical 0.28 mg/cm^2): 7 days; delay of hair regrowth in the treatment site post light treatment ([4]; topical 0.28 mg/cm^2): approximately 38 days; persistence of clearing formation of the skin ([4]; topical 0.28 mg/cm^2): at least 28 days; clearing formation, duration ([4]; topical 0.6 mg/cm^2): at least 30 days; skin responses (small, slight eschar), duration post light treatment ([4]; topical 0.6 mg/cm^2): approximately 10 days; time hair did not regrow in the treatment site post light treatment ([4]; topical 0.6 mg/cm^2): approximately 38 days; variable clearing persisting post light treatment ([4]; topical 0.6 mg/cm^2): up to 3 months
CCC1=C(C)c2cc3[n-]c(cc4nc(cc5[n-]c(cc1n2)c(C)c5CC)C(C)=C4CCCC(=O)OC)c(CCCC(=O)OC)c3C.[Cl-].[In+3] [Example 46, Indium Chloride 8,13-diethyl-3,7,12,17-tetramethylporphyrin-2,18-di(butanoic acid methyl ester)]	–	40	90	Normal skin Response (1 μmol) [2, 7]: 48 h; toxicity in animals [5]: death occurs in the animals at 3× the therapeutic dose
CCCOC(=O)CCC1=C(C)c2cc3[n-]c(cc4nc(cc5[n-]c(cc1n2)c(CCC(=O)OCCC)c5C)C=C4C)cc3C.[Cl-].[Ga+3] [Example 122, Gallium Chloride Deuteroporphyrin Di-propylester]	6	350	95	–
C=CC1=C(C)C2=Cc3c(C=C)c(C)c4[n]3[Al-2]35([Cl])[n]6c(c(C)c(CCC(=O)OC)c6=CC6=[N+]3C(=C4)C(C)=C6CCC(=O)OC)=CC1=[N+]25 [M=Al R1=V R3=Me R4=V R2=CO2Me]	6	3500	0	–
CCCCCCNC(=O)CCC1=C(C)C2=Cc3c(C)c(CC)c4[n]3[Ga-2]35([Cl])[n]6c(c(C)c(CCC(=O)NCCCCCC)c6=CC1=[N+]23)=CC1=[N+]5C(=C4)C(C)=C1CC [M=Ga R1=Et R3=Me R4=Et R2=CONH(Hexyl)]	–	400	60	Normal skin Response (1 μmol) [2, 7]: 96 h; normal skin responses, time post drug injection ([2]; rats, drug dose 1 μmol/Kg): 96 h
CCC1=C(CC)c2nc1cc1[nH]c(cc3nc(cc4[nH]c(n2)c(CC)c4CC)C(C)=C3CCC(=O)O)c(CCC(=O)O)c1C [M=H2 R1,R3=Et R2,R4=Et R=CO2H]	–	–	–	EC50 [1, 8]: 450 nM; Normal skin Response (1 μmol) in hrs ([2]; rat, in vivo): None; accelularity in rat artery at a four hour treatment point [3]: 0%; Max % Rat Artery Accelularity [3, 9]: 0%
C=CC1=C(C)C2=Cc3c(C=C)c(C)c4[n]3[Sn-2]35([Cl])([Cl])[n]6c(c(C)c(CCC(=O)OC)c6=CC6=[N+]3C(=C4)C(C)=C6CCC(=O)OC)=CC1=[N+]25 [M=Sn R1=V R3=Me R4=V R2=CO2Me]	–	1400	10	Normal skin Response (1 μmol) [2, 7]: 24 h
Aluminum Chloride 7,8,12,13-tetraethyl-12,17-dimethyl-10-azaporphyrin-2,18-di(propionic acid methyl ester) [Example 84]	48	–	–	EC50 [1, 8]: 40 nM; Max % Rat Artery Accelularity [3, 9]: 50%
Aluminum Chloride Mesoporphyrin Dimethyl Ester [Example 30]	24	3000	0	–
Gallium Chloride 3,7,14,17-tetramethyl-5,10-diazaporphyrin-2,8,12,18-tetra(propionic acid methyl ester) [Example 116]	–	–	–	EC50 ([1]; light EC50, metallodiazaporphyrins, read-out: In Vitro EC(50)): 350 nM; Normnal skin Response (1 μmol) ([2]; rat, in vivo): 4; Max % Rat Artery Accelularity ([3]; drug dose 1 (μMol), i.v., 50 J/cm^2, 160 mW/cm^2, Ga excited at 575 nm, sacrifice three days post treatment): 55%
Gallium Chloride 8,13-diethyl-3,7,12,17-tetramethylporphyrin-2,18-di(3′-hydroxypropyl) [Example 7]	48	550	95	reduction of smooth muscle cells in the media and myofibroblasts in the adventitial layers of rat arteries ([3]; text b238): efficient at dramatically reducing the number of smooth muscle cells
Gallium Chloride 8,13-diethyl-3,7,12,17-tetramethylporphyrin-2,18-di(3′-methoxypropyl) [Example 10]	48	400	75	–
Gallium Chloride Chloroporphyrin e6 Trimethyl Ester [Example 13]	6	–	–	EC50 [1, 10]: 400 nM; Max % Rat Artery Acceluarity ([3]; drug dose 1 μMol): 70%
Gallium Chloride Mesoporphyrin III Dimethyl Ester [Example 115]	6	300	10	–
Gallium Chloride Rhodoporphyrin Di-methylester [Example 123]	6	–	–	EC50 [1, 10]: 400 nM; Max % Rat Artery Acceluarity ([3]; drug dose 1 μMol): 60%
Tin (IV) Dichloride Mesoporphyrin Dimethyl Ester [Example 32]	24	1400	20	–
